From the supplement of paper PMC3493320

Tested on: NCI-H295R
Assay: IC50 (antiproliferative, ATP content)
Conditions: 48 h
Outline: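 Adrenocortical carcinoma cells (1500 per well) were seeded in serum-free ITS-supplemented DMEM in 1536-well plates and cultured overnight. Library compounds were then pin-transferred at 8 final concentrations from 0.6 nM to 46 µM, and plates were kept 48 h at 37 °C, 5% CO2. ATP was read as CellTiter-Glo luminescence after 20 min at room temperature and normalised to vehicle (0%) and positive control (100% inhibition). IC50 came from four-parameter logistic fits; compounds with no concentration response were recorded as above the top dose.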

Row | IC50 | SMILES
1 | > 46 µM | O.O.O.O.O.O.O=P([O-])([O-])OP(=O)([O-])OP(=O)([O-])[O-].[Na+].[Na+].[Na+].[Na+].[Na+]
2 | > 46 µM | O=C(O)CNC(=O)c1ccccc1I
3 | > 46 µM | CCC1=C(C)CN(C(=O)NCCc2ccc(S(=O)(=O)NC(=O)N[C@H]3CC[C@H](C)CC3)cc2)C1=O
4 | > 46 µM | Cl.O=C(NC1CCN(CCc2c[nH]c3ccccc23)CC1)c1ccccc1
5 | > 46 µM | Cc1cccc(C)c1NC(=O)NC1=CCCN1C
6 | > 46 µM | CC[C@@H]1C(=O)OC[C@@H]1Cc1cncn1C
7 | > 46 µM | OC(CN1CCC(Cc2ccc(F)cc2)CC1)c1ccc(Cl)cc1 (configuration not stated)
8 | > 46 µM | CCCCCCCCOc1ccccc1C(=O)Nc1ccc(C(=O)OCC[N+](C)(CC)CC)cc1.[Br-]
9 | > 46 µM | CCc1c(C)[nH]c2c1C(=O)C(CN1CCOCC1)CC2 (configuration not stated)
10 | > 46 µM | COc1ccc(OC)c(C(O)CNC(=O)CN)c1.Cl (configuration not stated)
11 | > 46 µM | Cl.Nc1ccn([C@@H]2O[C@H](CO)[C@@H](O)C2(F)F)c(=O)n1
12 | > 46 µM | CC(=O)N[C@H]1[C@@H](O[C@@H]2C(C(=O)[O-])C[C@@H](O[C@H]3[C@H](C)[C@@H](NS(=O)(=O)O)[C@@H](OC4C(C(=O)[O-])O[C@@H](OC5[C@H]6CO[C@H](O6)[C@H](NS(=O)(=O)[O-])[C@H]5O)[C@H](O)[C@H]4O)O[C@@H]3COS(=O)(=O)O)[C@H](O)[C@H]2O)O[C@H](COS(=O)(=O)O)[C@@H](O[C@@H]2OC(C(=O)[O-])=C[C@H](O)[C@H]2OS(=O)(=O)O)[C@@H]1O.[Na+].[Na+].[Na+].[Na+] (some centres not stated)
13 | > 46 µM | CC(C)O
14 | > 46 µM | CN1C(C(=O)Nc2ccccn2)=C(O)c2sccc2S1(=O)=O
15 | > 46 µM | O=[C@](CO)[C@@H]2[C@](CC1)(C)[C@](CC2)([H])[C@@](CC4)([H])[C@@]1([H])[C@](CC3)(C)C4=CC3=O
16 | > 46 µM | O=[C@](OC)[C@@H]3[C@@]2([H])C[C@@](N4C[C@@]([H])2CC[C@@H]3O)([H])C1=C(CC4)C(C=CC=C5)=C5N1
17 | > 46 µM | N#CCC(=O)NN
18 | > 46 µM | NC(=O)CCCCC1CCSS1 (configuration not stated)
19 | > 46 µM | C[C@H](O)[C@H](O)[C@H]1CNc2[nH]c(N)nc(=O)c2N1.Cl.Cl
20 | > 46 µM | N=C(N)NN=Cc1c(Cl)cccc1Cl
21 | > 46 µM | Cc1cccc(Nc2ccncc2S(=O)(=O)NC(=O)NC(C)C)c1
22 | > 46 µM | O=C([O-])CN(CCN(CC(=O)[O-])CC(=O)[O-])CC(=O)[O-].[Ca+2].[Na+].[Na+]
23 | > 46 µM | C=CCCCCCCCCC(=O)OC
24 | > 46 µM | CCCCCCCC(=O)O
25 | > 46 µM | COc1ccccc1OCC(O)CO (configuration not stated)
26 | > 46 µM | COc1cc(NS(=O)(=O)c2ccc(N)cc2)ncn1

Row | IC50 | SMILES
27 | > 46 µM | CCOC(C)=O
28 | > 46 µM | C/C(=C(\CCOC(=O)C(C)C)SS/C(CCOC(=O)C(C)C)=C(/C)N(C=O)Cc1cnc(C)nc1N)N(C=O)Cc1cnc(C)nc1N
29 | > 46 µM | Cn1c(=O)c2[nH]c(Br)nc2n(C)c1=O
30 | > 46 µM | NS(=O)(=O)c1cc2c(cc1Cl)NC(Cc1ccccc1)NS2(=O)=O (configuration not stated)
31 | > 46 µM | NC(=O)NC1NC(=O)NC1=O (configuration not stated)
32 | > 46 µM | C[C@@H]1CCC[C@H](C)N1.Cl
33 | > 46 µM | O=c1ccc2ccccc2o1
34 | > 46 µM | CCOC(=O)[C@H](CCc1ccccc1)N[C@@H](C)C(=O)N1CCC[C@H]1C(=O)O
35 | > 46 µM | CC(CC=O)CCCC(C)(C)O (configuration not stated)
36 | > 46 µM | CC(C)(C)C(=O)C(Oc1ccc(Cl)cc1)n1ccnc1 (configuration not stated)
37 | > 46 µM | CCN(CC)C(=O)/C(C#N)=C/c1cc(O)c(O)c([N+](=O)[O-])c1
38 | > 46 µM | CC/C=C\C/C=C\C/C=C\C/C=C\C/C=C\C/C=C/CCC(=O)O
39 | > 46 µM | CC[C@H]1OC(=O)[C@H](C)[C@@H](O[C@H]2C[C@@](C)(OC)[C@@H](O)[C@H](C)O2)[C@H](C)[C@@H](O[C@@H]2O[C@H](C)C[C@H](N(C)C)[C@H]2O)[C@](C)(O)C[C@@H](C)CN(C)[C@H](C)[C@@H](O)[C@]1(C)O
40 | > 46 µM | O=C1C(=Cc2cccs2)CCCC1=Cc1cccs1
41 | > 46 µM | CN(C)[C@@H]1C(O)=C(C(N)=O)C(=O)[C@@]2(O)C(O)=C3C(=O)c4c(O)ccc(Cl)c4[C@@H](O)[C@H]3C[C@@H]12.Cl
42 | > 46 µM | CCC(Cc1c(I)cc(I)c(N)c1I)C(=O)O (configuration not stated)
43 | > 46 µM | NC(=O)OCC(COC(N)=O)c1ccccc1
44 | > 46 µM | CCN(CC)CCNC(=O)COc1ccc(OC)cc1.Cl
45 | > 46 µM | CCCCCCCCCCCCCCCC(=O)OCC(COC(=O)CCCCCCCCCCCCCCC)OC(=O)CCCCCCCCCCCCCCC
46 | > 46 µM | Cc1ccc(N(CC2=NCCN2)c2cccc(O)c2)cc1
47 | > 46 µM | CCN1C(=O)NC(c2ccccc2)C1=O (configuration not stated)
48 | > 46 µM | CC(=O)[O][Al]([OH])[O]C(C)=O
49 | > 46 µM | CC(=O)OCC(=O)[C@H]2CC[C@H]3[C@@H]4CC\C1=C\C(=O)CC[C@]1(C)[C@H]4CC[C@]23C
50 | > 46 µM | OCc1ccccc1O
51 | > 46 µM | O=[C@](NC5=CC(C(F)(F)F)=CC=C5C(F)(F)F)[C@@H]4[C@@]3(C)CC[C@]2([H])[C@@]1(C)C=CC(N[C@@]([H])1CC[C@]([H])2[C@@]([H])3CC4)=O
52 | > 46 µM | NCCCC(O)(P(=O)([O-])O)P(=O)(O)O.O.O.O.[Na+]

Row | IC50 | SMILES
53 | > 46 µM | CSCCC(N)C(=O)O (configuration not stated)
54 | > 46 µM | OCC=Cc1ccccc1
55 | > 46 µM | NC/C=C/C(=O)O
56 | > 46 µM | CN1CCN2c3ccccc3Cc3ccccc3C2C1 (configuration not stated)
57 | > 46 µM | Cl.O=C(Nc1ccccc1)OCC(CN1CCCCC1)OC(=O)Nc1ccccc1 (configuration not stated)
58 | > 46 µM | Cc1cccc(C(=O)O)c1O
59 | > 46 µM | CCC(=O)c1ccc2c(c1)N(CCCN(C)C)c1ccccc1S2.Cl
60 | > 46 µM | C=CCc1ccccc1OCC(O)CNC(C)C (configuration not stated)
61 | > 46 µM | OC[C@@H](O)[C@@H](O)[C@H](O)[C@H](O)CO
62 | > 46 µM | N/C1=N/C(=O)N(/C=N1)[C@@H]2O[C@H](CO)[C@@H](O)[C@H]2O
63 | > 46 µM | Cc1ccc(=O)n(-c2ccccc2)c1
64 | > 46 µM | CN(C)C(=O)C(CCN1CCC(O)(c2ccc(Cl)cc2)CC1)(c1ccccc1)c1ccccc1
65 | > 46 µM | CCN(CC)CC(=O)Nc1c(C)cccc1C
66 | > 46 µM | CC(=O)Oc1ccc(C(c2ccc(OC(C)=O)cc2)c2ccccn2)cc1
67 | > 46 µM | O=C(OOC(=O)c1ccccc1)c1ccccc1
68 | > 46 µM | CCCCCCCC/C=C\CCCCCCCCN
69 | > 46 µM | CCC(C(=O)NC(N)=O)c1ccccc1 (configuration not stated)
70 | > 46 µM | Cc1c[nH]c2ccccc12
71 | > 46 µM | Nc1nc2ccc(OC(F)(F)F)cc2s1
72 | > 46 µM | CCOc1ccc2c(c1)C(C)=CC(C)(C)N2
73 | > 46 µM | COc1ccc(C=CC(=O)OCCC(C)C)cc1
74 | > 46 µM | C#C[C@]1(O)CC[C@H]2[C@@H]3CCC4=CC(=O)CC[C@@H]4[C@H]3CC[C@@]21CC
75 | > 46 µM | C[N+]1(CC2COC(c3ccccc3)(C3CCCCC3)O2)CCCCC1.[I-] (configuration not stated)
76 | > 46 µM | COc1ccc2cc(CCC(C)=O)ccc2c1
77 | > 46 µM | CC(C)(C)CC(C)(C)c1cc(Cc2cc(C(C)(C)CC(C)(C)C)cc(-n3nc4ccccc4n3)c2O)c(O)c(-n2nc3ccccc3n2)c1
78 | > 46 µM | CC(O)C(=O)O.CCOc1ccc2nc3cc(N)ccc3c(N)c2c1.O

Row | SMILES | IC50
79 | COc1ccccc1N1CCNCC1.Cl | > 46 µM
80 | O=C1Nc2ccc(Cl)cc2C(c2ccccc2)=NC1O (configuration not stated) | > 46 µM
81 | CCNc1nc(Cl)nc(NCC)n1 | > 46 µM
82 | Br.COc1ccc2c(c1)[C@]13CCCC[C@@H]1[C@H](C2)N(C)CC3.O | > 46 µM
83 | N=C(N)NCCN1CCCCCCC1.O=S(=O)(O)O.O=S(=O)(O)O | > 46 µM
84 | COc1ccc(C(=O)c2c(C)n(CCN3CCOCC3)c3ccccc23)cc1 | > 46 µM
85 | C=CCN1CC[C@]23c4c5ccc(O)c4O[C@H]2C(=O)CC[C@@]3(O)[C@H]1C5 | > 46 µM
86 | O=C(CC)O[C@@]1([C@@]2=CC=CC=C2)[C@H](C)CN(C)CC1 | > 46 µM
87 | CC[C@H](C)CCCCC(=O)N[C@@H](CCN)C(=O)N[C@H](C(=O)N[C@@H](CCN)C(=O)N[C@H]1CCNC(=O)[C@H]([C@@H](C)O)NC(=O)[C@H](CCN)NC(=O)[C@H](CCN)NC(=O)[C@H](CC(C)C)NC(=O)[C@@H](CC(C)C)NC(=O)[C@H](CCN)NC1=O)[C@@H](C)O.O=S(=O)(O)O | > 46 µM
88 | Cn1c(=O)c2c(ncn2C)n(C)c1=O.O=C(O)CC(O)(CC(=O)O)C(=O)O | > 46 µM
89 | CCN(CC)CCOC(=O)c1cccnc1.O=C(O)CC(O)(CC(=O)O)C(=O)O | > 46 µM
90 | Cc1ccccc1-n1c(C)nc2ccccc2c1=O | > 46 µM
91 | CCCCCCC[N+](CC)(CC)CCCCc1ccc(Cl)cc1.Cc1ccc(S(=O)(=O)[O-])cc1 | > 46 µM
92 | C[N+]1(C)[C@@H]2CC[C@H]1C[C@H](OC(=O)c1c[nH]c3ccccc13)C2.[I-] | > 46 µM
93 | C[C@]12CC[C@H]3[C@@H](CCC4=C(O)C(=O)CC[C@@H]43)[C@@H]1CC[C@@H]2OC(=O)CCC1CCCC1 | > 46 µM
94 | ClC=C(Cl)Cl | > 46 µM
95 | NCC(CC(=O)O)c1ccc(Cl)cc1 (configuration not stated) | > 46 µM
96 | O=C1CN=C(c2ccccc2)c2cc(Cl)ccc2N1CC1CC1 | > 46 µM
97 | CCCCCCCCOC(=O)c1ccccc1C(=O)OCCCCCCCC | > 46 µM
98 | Nc1ccc([As](=O)(O)O)cc1 | > 46 µM
99 | Cc1cccc(C(C)c2c[nH]cn2)c1C (configuration not stated) | > 46 µM
100 | O=C(NCNC(=O)NC1C(=O)NC(=O)N1CO)NC1C(=O)NC(=O)N1CO (configuration not stated) | > 46 µM
101 | O=C1NCN(c2ccccc2)C12CCN(CC1COc3ccccc3O1)CC2 (configuration not stated) | > 46 µM
102 | CCC(C)(S(=O)(=O)CC)S(=O)(=O)CC | > 46 µM
